The target of test [1] is NAD-dependent protein deacylase sirtuin-5, mitochondrial (Homo sapiens, UniProt Q9NXA8). In words: sirtuin-5 deacylation blockers, concentration series – biochemical, fluorescence imaging, cherry-pick, set 5, dose response (AID 720591).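 Further: desuccinylation of succinyl peptide AMC substrate read as fluorescence after trypsin release; potency of inhibitors that lower fluorescence and may act on trypsin instead.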
The next test addresses Paired box protein Pax-8 (Homo sapiens, UniProt Q06710). Kind of test: PAX8 transcriptional activity inhibition in RMG-I – RMG-I cells, luciferase, cherry-pick, dose response (AID 687027).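 Further: luciferase reporter driven by Pax8 target thyroperoxidase promoter measured by SteadyGlo luminescence.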 It counts as functional, cell-based.
The nature of test [2]: IGROV1 cell killing – plate reader, dry powder samples, PAX8 inhibitor project, dose response (AID 743043). It counts as functional, cell-based. The settings on record: IGROV-1.
Test [3] is described as follows: OVCAR8 cell viability loss – plate reader, dry powder samples, PAX8 project, dose response (AID 743197). It counts as functional, cell-based. The note with it: OVCAR-8.
The target in test [4] is Nuclear receptor subfamily 0 group B member 1 (Homo sapiens, UniProt P51843). Type of test: functional, cell-based.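 Further: HEK293T cells transfected with SF-1 and DAX-1 plus StAR promoter luciferase reporter.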
Chain of Nuclear receptor subfamily 0 group B member 1 (P51843 whole entry): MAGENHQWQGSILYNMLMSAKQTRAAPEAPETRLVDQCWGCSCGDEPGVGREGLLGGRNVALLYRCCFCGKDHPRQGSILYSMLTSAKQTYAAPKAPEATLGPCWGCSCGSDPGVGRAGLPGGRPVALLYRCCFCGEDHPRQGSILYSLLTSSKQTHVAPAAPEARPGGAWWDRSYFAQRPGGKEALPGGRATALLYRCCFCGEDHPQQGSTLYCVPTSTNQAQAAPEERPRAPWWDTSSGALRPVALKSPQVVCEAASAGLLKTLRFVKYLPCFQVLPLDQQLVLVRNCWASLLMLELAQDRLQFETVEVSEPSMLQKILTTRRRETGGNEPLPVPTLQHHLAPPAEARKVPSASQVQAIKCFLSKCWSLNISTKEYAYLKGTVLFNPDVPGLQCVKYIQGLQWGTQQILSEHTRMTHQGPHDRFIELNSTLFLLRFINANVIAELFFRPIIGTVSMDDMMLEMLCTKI
A further test can be described thus: cells. Type of test: functional, cell-based.
The nature of test [5]: viability loss in MITF-independent A375 cells – cell-based, CellTiter-Glo luminescence, dry powder, set 2, counter-screen for MITF inhibitor project, dose response (AID 624489).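 Further: actives are compounds lowering A375 viability meaning general cytotoxicity.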 The note with it: A-375. Type of test: functional. For orientation: ATP-based viability assays read luminescence as a measure of living cells.
Test [6] in a line: cytotoxicity in MITF-independent A375 cells – cell-based, CellTiter-Glo luminescence, dry powder, set 4, counter-screen for MITF inhibitor project, dose response (AID 624364).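 Further: A375 melanoma cells are MITF independent so this is a counter screen.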 It counts as functional. The note with it: A-375.
Test [7] deals with Metabotropic glutamate receptor 3 (Rattus norvegicus, UniProt P31422). Kind of test: inhibitors of rat mGlu3 Galpha15 signaling – TREx293 cells, calcium flux, mGlu3 NAM project, dose response (AID 651840). Type of test: functional.
Chain of Metabotropic glutamate receptor 3 (P31422 whole entry): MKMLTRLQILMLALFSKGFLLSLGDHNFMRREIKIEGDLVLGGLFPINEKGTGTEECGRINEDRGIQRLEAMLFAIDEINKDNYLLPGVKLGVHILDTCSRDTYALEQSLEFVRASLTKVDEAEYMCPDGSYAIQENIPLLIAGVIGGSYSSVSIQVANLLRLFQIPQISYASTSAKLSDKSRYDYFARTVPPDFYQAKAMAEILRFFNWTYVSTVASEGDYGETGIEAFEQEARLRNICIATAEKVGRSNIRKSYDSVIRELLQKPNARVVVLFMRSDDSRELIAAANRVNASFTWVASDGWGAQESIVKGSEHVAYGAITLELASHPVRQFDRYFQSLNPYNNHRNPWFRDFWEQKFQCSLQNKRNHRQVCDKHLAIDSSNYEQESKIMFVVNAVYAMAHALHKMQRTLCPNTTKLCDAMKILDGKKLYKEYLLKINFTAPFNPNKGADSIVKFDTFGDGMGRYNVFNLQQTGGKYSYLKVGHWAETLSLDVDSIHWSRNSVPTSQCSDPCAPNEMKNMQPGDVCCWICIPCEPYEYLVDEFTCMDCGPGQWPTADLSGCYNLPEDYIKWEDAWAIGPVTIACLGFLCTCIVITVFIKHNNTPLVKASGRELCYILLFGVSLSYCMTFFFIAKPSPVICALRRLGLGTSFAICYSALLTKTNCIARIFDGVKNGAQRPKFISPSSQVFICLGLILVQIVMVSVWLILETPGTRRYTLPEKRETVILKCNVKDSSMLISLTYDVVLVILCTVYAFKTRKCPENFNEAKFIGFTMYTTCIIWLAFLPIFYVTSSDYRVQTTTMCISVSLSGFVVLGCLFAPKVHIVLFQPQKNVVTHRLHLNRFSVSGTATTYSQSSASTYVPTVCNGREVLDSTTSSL
A short description of test [8]: viability loss in LCL cells – cell-based, plate reader, dry powder, set 2, cytotoxicity control, dose response (AID 624367). Type of test: functional.
The next test deals with Streptococcus. Kind of test: GAS UMAA2166 growth inhibition – luminescence, BacTiterGlo, counter-screen for streptokinase expression inhibitor project, dose response (AID 1915).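 Further: potency for reduction of bacterial viability or growth.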 It counts as functional, organism-based. On the technique in general: The purpose of a counterscreen is to sort out artefacts and off-target activity.
Test [9] can be described thus: Luminescence Cell-Based Dose Retest to Confirm Inhibitors of Cancer Stem Cells. [Related pubchem assays (depositor defined):AID2717, AID2721]. The settings on record: Homo sapiens. It counts as functional.
Another test concerns the target T1, Streptokinase A (Streptococcus pyogenes serotype M1, UniProt P10520).
T1 sequence (P10520 whole entry): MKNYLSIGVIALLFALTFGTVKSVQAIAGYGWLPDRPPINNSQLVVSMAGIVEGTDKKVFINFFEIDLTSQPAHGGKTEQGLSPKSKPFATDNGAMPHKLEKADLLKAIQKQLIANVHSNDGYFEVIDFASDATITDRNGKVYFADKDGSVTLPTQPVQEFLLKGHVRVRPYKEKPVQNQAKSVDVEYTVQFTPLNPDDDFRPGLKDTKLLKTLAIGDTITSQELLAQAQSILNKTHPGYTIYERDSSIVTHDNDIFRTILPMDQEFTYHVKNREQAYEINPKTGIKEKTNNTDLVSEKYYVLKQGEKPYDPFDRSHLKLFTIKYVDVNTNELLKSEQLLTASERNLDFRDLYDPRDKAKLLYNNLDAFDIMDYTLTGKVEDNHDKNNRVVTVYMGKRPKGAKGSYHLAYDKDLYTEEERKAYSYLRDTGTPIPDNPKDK
In words: viability-normalized secreted streptokinase activity reduction – plasminogen activation absorbance, OD405, dose response (AID 1914).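 Further: secreted streptokinase activity via plasminogen activation per viability signal from cell pellet.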 It counts as functional, Streptococcus pyogenes M1 GAS.

Test [10] has as its target Disintegrin and metalloproteinase domain-containing protein 17 (Homo sapiens, UniProt P78536). In words: inhibition of ADAM17 substrate cleavage – biochemical, quenched FRET substrate, counter-screen for ADAM10 exosite inhibitor project, dose response (AID 743253).
The subject of test [11] is Streptococcus sp. 'group A'. In words: Streptococcus pyogenes SK(-)GAS viability under kanamycin – luminescence, BacTiterGlo, confirmation, counter-screen for streptokinase expression inhibitor project, dose response (AID 1900). It counts as functional, organism-based.
Test [12] is described as follows: viability loss in HepG2 hepatoma cells – cell-based, cherry-picks, set 5, cytotoxicity control, dose response (AID 1053118). It counts as functional.
Test [13] in a line: viability loss in HEK293 kidney cells – cell-based, cherry-picks, set 5, cytotoxicity control, dose response (AID 1053117). Type of test: functional.

The structures appear in SMILES notation. Active and inactive are the calls of the source.

A word on the AC50: it is the midpoint of the concentration-response curve, whichever way the signal moves. By IC50 is commonly meant the point on the concentration scale where inhibition reaches its midpoint. In general, EC50 refers to the concentration at which the effect is half-maximal.

Chain of NAD-dependent protein deacylase sirtuin-5, mitochondrial (Q9NXA8 whole entry): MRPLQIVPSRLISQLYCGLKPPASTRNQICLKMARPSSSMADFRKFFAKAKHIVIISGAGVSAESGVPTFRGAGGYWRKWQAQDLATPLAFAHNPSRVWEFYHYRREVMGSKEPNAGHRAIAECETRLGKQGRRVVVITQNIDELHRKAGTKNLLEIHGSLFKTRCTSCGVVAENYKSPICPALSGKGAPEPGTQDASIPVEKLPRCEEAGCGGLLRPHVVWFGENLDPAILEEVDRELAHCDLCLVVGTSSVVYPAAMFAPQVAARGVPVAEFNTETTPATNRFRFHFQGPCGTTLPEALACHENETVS
Chain of Disintegrin and metalloproteinase domain-containing protein 17 (P78536 whole entry, the tested form may be a part): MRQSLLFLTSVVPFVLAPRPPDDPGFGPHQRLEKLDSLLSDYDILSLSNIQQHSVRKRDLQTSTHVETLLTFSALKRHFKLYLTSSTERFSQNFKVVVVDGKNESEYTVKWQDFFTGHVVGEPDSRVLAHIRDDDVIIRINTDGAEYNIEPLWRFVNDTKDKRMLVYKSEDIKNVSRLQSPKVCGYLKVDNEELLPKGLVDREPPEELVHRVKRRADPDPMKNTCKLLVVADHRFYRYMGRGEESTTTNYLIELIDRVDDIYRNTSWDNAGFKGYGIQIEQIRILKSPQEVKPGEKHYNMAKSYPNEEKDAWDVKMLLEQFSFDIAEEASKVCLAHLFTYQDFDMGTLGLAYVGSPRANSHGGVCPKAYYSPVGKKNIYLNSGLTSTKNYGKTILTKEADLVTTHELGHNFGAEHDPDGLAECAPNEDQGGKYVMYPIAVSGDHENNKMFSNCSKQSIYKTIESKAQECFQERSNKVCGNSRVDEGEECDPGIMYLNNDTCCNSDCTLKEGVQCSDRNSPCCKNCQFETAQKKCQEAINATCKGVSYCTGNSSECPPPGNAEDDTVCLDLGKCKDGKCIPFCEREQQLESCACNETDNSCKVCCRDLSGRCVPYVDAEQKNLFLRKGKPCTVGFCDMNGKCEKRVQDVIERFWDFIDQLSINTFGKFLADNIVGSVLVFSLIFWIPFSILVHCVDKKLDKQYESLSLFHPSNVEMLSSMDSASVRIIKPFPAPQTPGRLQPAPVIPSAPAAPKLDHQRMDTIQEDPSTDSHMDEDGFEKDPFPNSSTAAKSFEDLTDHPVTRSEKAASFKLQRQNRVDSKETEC
Chain of Paired box protein Pax-8 (Q06710 whole entry): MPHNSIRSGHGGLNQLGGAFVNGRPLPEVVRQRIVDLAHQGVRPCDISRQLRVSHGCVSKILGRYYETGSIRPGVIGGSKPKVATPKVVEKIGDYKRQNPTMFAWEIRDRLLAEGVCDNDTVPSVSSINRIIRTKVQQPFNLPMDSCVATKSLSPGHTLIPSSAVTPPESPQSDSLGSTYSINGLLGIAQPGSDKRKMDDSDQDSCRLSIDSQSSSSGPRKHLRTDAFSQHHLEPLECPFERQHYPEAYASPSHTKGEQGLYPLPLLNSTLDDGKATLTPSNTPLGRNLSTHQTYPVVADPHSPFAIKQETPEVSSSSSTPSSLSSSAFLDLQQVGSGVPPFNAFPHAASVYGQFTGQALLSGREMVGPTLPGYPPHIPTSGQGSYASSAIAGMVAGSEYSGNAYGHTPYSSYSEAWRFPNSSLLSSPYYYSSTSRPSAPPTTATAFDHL

`CCn1ccnc1CN(C)C(=O)CC1C(=O)NCCN1Cc1c(F)cccc1Cl` (configuration not stated): the AC50 in test [1] is > 30 µM (inactive).
For the molecule `COc1cccc(-c2ccc([C@H]3[C@@H](CO)N(C(=O)c4ccccn4)[C@H]3C#N)cc2)c1`, the figures for the AC50 (at Paired box protein Pax-8; in test [2]; in [3]) were 7.31 µM (active), 68.1 µM (active) and 39.2 µM (active), respectively.
In the case of `CC(=O)Nc1ccc(-c2ccnc3c2CC(C(=O)NCc2ccco2)O3)cc1` (configuration not stated), the IC50 (in test [4]; in “cells”) was > 67.5 µM (inactive) throughout.
Turning to `C=CCNC1=C(NCCN(CC)CC)C(=O)c2ccccc2C1=O`, the figures for the AC50 in test [5] and in test [6] were 17.4 µM (active) and 36 µM (active), respectively.
With `COc1ccc(C#Cc2ccc(C(=O)N3CCC(=O)C(C)(C)C3)cc2)cc1`, the 50% inhibitory concentration (IC50) in [7] was 3.13 µM.
`Cc1cc(C(=O)Nc2ccc3c(c2)C(=O)N(C)[C@@H]2CC[C@H](CC(=O)NCc4ccc(-c5ccccc5)cc4)O[C@@H]2CO3)no1`: the AbsAC35 in test [8] stood at 211.39 µM.
As for `Oc1ccc(Cl)cc1-c1cc(-c2cccc(Br)c2)[nH]n1`, the figures for the EC50 (in the test with Streptococcus; at Streptokinase A; in test [11]) were 6.65 µM (active), > 150 µM (not active) and 5.6 µM (active), respectively. In test [9], the AC50 was 5.22 µM (active). Besides, the IC50 in [10] was > 69.5 µM (inactive).
In the case of `CO[C@@H]1CN(C)C(=O)c2cc(NC(=O)Nc3cc(Cl)cc(Cl)c3)ccc2OC[C@H](C)NC[C@@H]1C`, the AC50 in [12] was 13.1 µM (active); in [13], 15.8 µM (active).

These data come from ChEMBL document CHEMBL1201862, “PubChem BioAssay data set” (2004).
